Measurements taken from ChEMBL document CHEMBL3864191 (ACS Med Chem Lett, 2016).
pIC50, pKi: −log10 of the molar value. “And” between values parts separate entries of the source, which are not always exact repeats. Identical values can stand only once. The source made the active and inactive calls. The rule behind the calls is not given here.

Legend:
[1] = system: NCI60; assay: Cytotoxicity against human NCI60 cells assessed as cell growth inhibition up to 10 uM after 48 hrs by SRB assay; assay type: functional, cell-based
[2] = Cytotoxicity against human DU145 cells assessed as reduction in cell viability after 72 hrs by MTT assay; assay type: functional, cell-based, DU-145
[3] = biological target: Induced myeloid leukemia cell differentiation protein Mcl-1 (Homo sapiens, UniProt Q07820); assay: Inhibition of FAM-Bid binding to human MCL1 expressed in Escherichia coli BL21 after 30 mins by fluorescence polarization assay
[4] = cells; conditions: Homo sapiens, MCF7, 72 h
Description: Cytotoxicity against human MCF7 cells assessed as reduction in cell viability after 72 hrs by MTT assay

[5] = Cytotoxicity against mouse CT26 cells assessed as reduction in cell viability after 72 hrs by MTT assay; assay type: functional, cell-based
[6] = cells; conditions: Homo sapiens, HCT-116, 72 h
Description: Cytotoxicity against human HCT116 cells assessed as reduction in cell viability after 72 hrs by MTT assay

[7] = Cytotoxicity against African green monkey Vero cells assessed as reduction in cell viability at 0.33 to 100 uM after 72 hrs by MTT assay; assay type: toxicity, cell-based; conditions: chlorocebus sabaeus
[8] = biological target: Apoptosis regulator Bcl-2 (Homo sapiens, UniProt P10415); assay: Inhibition of FAM-Bid binding to human BCL2 expressed in Escherichia coli BL21 after 30 mins by fluorescence polarization assay
[9] = Cytotoxicity against HEK293T cells assessed as reduction in cell viability at 0.33 to 100 uM after 72 hrs by MTT assay; assay type: toxicity, cell-based; conditions: human, hek-293t
[10] = Cytotoxicity against human colon cancer cells assessed as cell growth inhibition after 48 hrs by SRB assay; assay type: functional; conditions: Cancer cell lines
[11] = Cytotoxicity against human CNS cancer cells assessed as cell growth inhibition after 48 hrs by SRB assay; assay type: functional; conditions: Cancer cell lines
[12] = Cytotoxicity against human ovarian cancer cells assessed as cell growth inhibition after 48 hrs by SRB assay; assay type: functional; conditions: Cancer cell lines
[13] = Cytotoxicity against human melanoma cells assessed as cell growth inhibition after 48 hrs by SRB assay; assay type: functional
[14] = Cytotoxicity against human leukemia cells assessed as cell growth inhibition after 48 hrs by SRB assay; assay type: functional
[15] = Cytotoxicity against human prostate cancer cells assessed as cell growth inhibition after 48 hrs by SRB assay; assay type: functional; conditions: Cancer cell lines
[16] = Cytotoxicity against human non-small cell lung cancer cells assessed as cell growth inhibition after 48 hrs by SRB assay; assay type: functional; conditions: Cancer cell lines
[17] = Cytotoxicity against human renal cancer cells assessed as cell growth inhibition after 48 hrs by SRB assay; assay type: functional; conditions: Cancer cell lines
[18] = Cytotoxicity against human breast cancer cells assessed as cell growth inhibition after 48 hrs by SRB assay; assay type: functional; conditions: Cancer cell lines
[19] = Cytotoxicity against human NCI60 cells assessed as cell growth inhibition after 48 hrs by SRB assay; assay type: functional; conditions: NCI60, 48 h
[20] = system: SNB-19; assay: Cytotoxicity against human SNB19 cells assessed as cell growth inhibition after 48 hrs by SRB assay; assay type: functional, cell-based
[21] = system: HOP-92; assay: Cytotoxicity against human HOP92 cells assessed as cell growth inhibition after 48 hrs by SRB assay; assay type: functional, cell-based
[22] = system: RXF 393; assay: Cytotoxicity against human RXF393 cells assessed as cell growth inhibition after 48 hrs by SRB assay; assay type: functional, cell-based
[23] = system: U-251; assay: Cytotoxicity against human U251 cells assessed as cell growth inhibition after 48 hrs by SRB assay; assay type: functional, cell-based

Sequence of Apoptosis regulator Bcl-2 (P10415 whole entry): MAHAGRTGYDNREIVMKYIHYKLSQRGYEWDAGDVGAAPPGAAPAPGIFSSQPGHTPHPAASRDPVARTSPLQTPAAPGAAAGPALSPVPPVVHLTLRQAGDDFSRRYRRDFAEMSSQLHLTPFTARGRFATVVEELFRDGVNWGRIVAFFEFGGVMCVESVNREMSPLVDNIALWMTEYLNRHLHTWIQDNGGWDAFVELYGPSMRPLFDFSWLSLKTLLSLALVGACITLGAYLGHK
Sequence of Induced myeloid leukemia cell differentiation protein Mcl-1 (Q07820 whole entry): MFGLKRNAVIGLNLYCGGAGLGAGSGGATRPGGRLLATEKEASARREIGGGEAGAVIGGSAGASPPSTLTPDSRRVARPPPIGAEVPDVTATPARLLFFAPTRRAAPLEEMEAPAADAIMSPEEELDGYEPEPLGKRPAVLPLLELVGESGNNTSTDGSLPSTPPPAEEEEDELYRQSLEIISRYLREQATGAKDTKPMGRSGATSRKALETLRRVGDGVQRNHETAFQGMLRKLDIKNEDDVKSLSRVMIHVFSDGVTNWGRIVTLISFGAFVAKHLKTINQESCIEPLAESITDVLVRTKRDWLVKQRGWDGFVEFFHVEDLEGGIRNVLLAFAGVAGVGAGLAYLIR

| pIC50 [3] | pKi [3] | pIC50 [4] | pIC50 [6] | pIC50 [8] | pKi [8] | Compound | growth inhibition (GI) [1] | pIC50 ([2]; Homo sapiens, DU-145, 72 h) | pIC50 ([5]; Mus musculus, CT26, 72 h) | Activity [7] | Activity [9] | further results |
| --- | --- | --- | --- | --- | --- | --- | --- | --- | --- | --- | --- | --- |
| 6.28 | 6.92 | 4.84 | 4.57 | 6.24 | 6.65 | Cc1cc2c(c(O)c1-c1c(C)cc3c(c1O)/C(=C/NCC(=O)O)C(=O)C(O)=C3C(C)C)/C(=C/NCC(=O)O)C(=O)C(O)=C2C(C)C | Active | 4.46 | 4.31 | Non-Toxic | Non-Toxic |  |
| < 5.40 | < 6.11 |  |  |  |  | CC1(C)CCC(CN2CCN(c3ccc(C(=O)NS(=O)(=O)c4ccc(NCC5CCOCC5)c([N+](=O)[O-])c4)c(Oc4cnc5[nH]ccc5c4)c3)CC2)=C(c2ccc(Cl)cc2)C1 [VENETOCLAX] |  |  |  |  |  | GI50 [10]: 2.85 µM; GI50 [11]: 3.35 µM; GI50 [12]: 3.33 µM; GI50 [13]: 1.75 µM; GI50 [14]: 2.11 µM; GI50 [15]: 3.51 µM; GI50 [16]: 2.7 µM; GI50 [17]: 2.6 µM; GI50 [18]: 2.77 µM; GI50 [19]: 0.2 to 5.1 µM |
|  |  | < 4.00 | 4.37 |  |  | Cc1cc2c(c(O)c1-c1c(C)cc3c(c1O)/C(=C/NCc1ccco1)C(=O)C(O)=C3C(C)C)/C(=C/NCc1ccco1)C(=O)C(O)=C2C(C)C | Active | 4.81 | < 4.00 |  |  |  |
| 6.13 | 6.86 | 5.09 | 5.47 | 6.32 | 6.74 | COC(=O)CCCCN/C=C1\C(=O)C(O)=C(C(C)C)c2cc(C)c(-c3c(C)cc4c(c3O)/C(=C/NCCCCC(=O)OC)C(=O)C(O)=C4C(C)C)c(O)c21 | Active | 5.13 | 4.78 | Non-Toxic | Non-Toxic | GI50 [10]: 1 µM; growth inhibition (GI) [20]: Active; growth inhibition (GI) [21]: Active; GI50 [11]: 1.27 µM; growth inhibition (GI) [22]: Active; GI50 [12]: 1.26 µM; GI50 [13]: 1.42 µM; GI50 [14]: 0.81 µM; GI50 [15]: 1.09 µM; GI50 [16]: 1.05 µM; GI50 [17]: 1.14 µM; growth inhibition (GI) [23]: Active; GI50 [18]: 1.08 µM |
|  |  | < 4.00 | < 4.00 |  |  | Cc1cc2c(c(O)c1-c1c(C)cc3c(c1O)/C(=C/NC(C)(C)C)C(=O)C(O)=C3C(C)C)/C(=C/NC(C)(C)C)C(=O)C(O)=C2C(C)C | Active | 4.77 | 4.89 |  |  |  |
|  |  | < 4.00 | 4.08 |  |  | Cc1cc2c(c(O)c1-c1c(C)cc3c(c1O)/C(=C/NCc1ccccc1)C(=O)C(O)=C3C(C)C)/C(=C/NCc1ccccc1)C(=O)C(O)=C2C(C)C | Active | 4.66 | < 4.00 |  |  |  |
|  |  | < 4.00 | < 4.00 |  |  | Cc1cc2c(c(O)c1-c1c(C)cc3c(c1O)/C(=C/NC(C)(C)C(C)(C)C)C(=O)C(O)=C3C(C)C)/C(=C/NC(C)(C)C(C)(C)C)C(=O)C(O)=C2C(C)C | Active | < 4.00 | 5.27 |  |  |  |
| 6.18 | 7.03 | 4.70 | 4.49 | 6.22 | 6.63 | Cc1cc2c(c(O)c1-c1c(C)cc3c(c1O)/C(=C/NCCCC(=O)O)C(=O)C(O)=C3C(C)C)/C(=C/NCCCC(=O)O)C(=O)C(O)=C2C(C)C |  | 4.74 | 4.54 | Non-Toxic | Non-Toxic |  |
| 6.32 | 7.07 | 4.80 | 4.65 | 6.34 | 6.77 | Cc1cc2c(c(O)c1-c1c(C)cc3c(c1O)/C(=C/NCCCCC(=O)O)C(=O)C(O)=C3C(C)C)/C(=C/NCCCCC(=O)O)C(=O)C(O)=C2C(C)C |  | 4.68 | 5.35 | Non-Toxic | Non-Toxic |  |
| 5.84 | 6.56 |  |  | 6.99 | 8.30 | COC(=O)CN/C=C1\C(=O)C(O)=C(C(C)C)c2cc(C)c(-c3c(C)cc4c(c3O)/C(=C/NCC(=O)OC)C(=O)C(O)=C4C(C)C)c(O)c21 | Active |  |  | Non-Toxic | Non-Toxic | GI50 [10]: 1.63 µM; GI50 [11]: 1.63 µM; GI50 [12]: 1.74 µM; GI50 [13]: 2.84 µM; GI50 [14]: 1.88 µM; GI50 [15]: 1.92 µM; GI50 [16]: 1.65 µM; GI50 [17]: 2.19 µM; GI50 [18]: 2.44 µM |
|  |  | 5.05 | 4.88 |  |  | COC(=O)CCCCCCN/C=C1\C(=O)C(O)=C(C(C)C)c2cc(C)c(-c3c(C)cc4c(c3O)/C(=C/NCCCCCCC(=O)OC)C(=O)C(O)=C4C(C)C)c(O)c21 | Active | 4.94 | 5.25 | Non-Toxic | Non-Toxic |  |
|  |  |  |  |  |  | COC(=O)CCCN/C=C1\C(=O)C(O)=C(C(C)C)c2cc(C)c(-c3c(C)cc4c(c3O)/C(=C/NCCCC(=O)OC)C(=O)C(O)=C4C(C)C)c(O)c21 (stereo in doubt; 16) | Active |  |  |  |  |  |
|  |  | < 4.00 | < 4.00 |  |  | Cc1cc2c(c(O)c1-c1c(C)cc3c(c1O)/C(=C/Nc1ccc(C(C)(C)C)cc1)C(=O)C(O)=C3C(C)C)/C(=C/Nc1ccc(C(C)(C)C)cc1)C(=O)C(O)=C2C(C)C | Active | < 4.00 | 4.89 |  |  |  |
| 5.53 | 6.24 | 5.25 | 5.28 | 6.54 | 7.05 | COC(=O)CCN/C=C1\C(=O)C(O)=C(C(C)C)c2cc(C)c(-c3c(C)cc4c(c3O)/C(=C/NCCC(=O)OC)C(=O)C(O)=C4C(C)C)c(O)c21 |  | 5.02 | 5.37 | Non-Toxic | Non-Toxic |  |
|  |  | < 4.00 | 4.10 |  |  | Cc1cc2c(c(O)c1-c1c(C)cc3c(c1O)/C(=C/NC1CCCCC1)C(=O)C(O)=C3C(C)C)/C(=C/NC1CCCCC1)C(=O)C(O)=C2C(C)C | Active | 4.69 | 4.60 |  |  |  |
| 5.99 | 6.71 | 4.94 | 6.19 | 6.08 | 6.46 | COC(=O)CCCCCN/C=C1\C(=O)C(O)=C(C(C)C)c2cc(C)c(-c3c(C)cc4c(c3O)/C(=C/NCCCCCC(=O)OC)C(=O)C(O)=C4C(C)C)c(O)c21 | Active | 5.07 | 4.86 | Non-Toxic | Non-Toxic | GI50 [10]: 1.44 µM; GI50 [11]: 1.46 µM; GI50 [12]: 2.65 µM; GI50 [13]: 2.35 µM; GI50 [14]: 1.03 µM; GI50 [15]: 1.41 µM; GI50 [16]: 1.51 µM; GI50 [17]: 2.08 µM; GI50 [18]: 1.72 µM |

| Compound | pIC50 [3] | pKi [3] | pIC50 [4] | pIC50 [6] | pIC50 [8] | pKi [8] | growth inhibition (GI) [1] | pIC50 ([2]; Homo sapiens, DU-145, 72 h) | pIC50 ([5]; Mus musculus, CT26, 72 h) | Activity [7] | Activity [9] | further results |
| --- | --- | --- | --- | --- | --- | --- | --- | --- | --- | --- | --- | --- |
| Cc1cc2c(C(C)C)c(O)c(O)c(C=O)c2c(O)c1-c1c(C)cc2c(C(C)C)c(O)c(O)c(C=O)c2c1O [GOSSYPOL] | 6.07 | 6.79 | 4.27 | 5.44 |  |  |  |  |  | Toxic | Toxic | GI50 [10]: 3.19 µM; pIC50 ([2]; du-145): 5.10 and 4.72; GI50 [11]: 2.97 µM; GI50 [12]: 3.5 µM; GI50 [13]: 3.22 µM; GI50 [14]: 2.47 µM; GI50 [16]: 2.85 µM; GI50 [17]: 3.16 µM; pIC50 ([5]; ct26): 4.63 and 4.21 and 4.33; GI50 [19]: 0.8 to 5.1 µM |
